{
  "source": "ChEMBL document CHEMBL4732209",
  "about": "“Indole scaffolds as a promising class of the aryl hydrocarbon receptor ligands” (Eur J Med Chem, 2021)",
  "key": {"[1]": {"target": "T1, Aryl hydrocarbon receptor (Homo sapiens, UniProt P35869)", "T1 sequence (P35869 whole entry)": "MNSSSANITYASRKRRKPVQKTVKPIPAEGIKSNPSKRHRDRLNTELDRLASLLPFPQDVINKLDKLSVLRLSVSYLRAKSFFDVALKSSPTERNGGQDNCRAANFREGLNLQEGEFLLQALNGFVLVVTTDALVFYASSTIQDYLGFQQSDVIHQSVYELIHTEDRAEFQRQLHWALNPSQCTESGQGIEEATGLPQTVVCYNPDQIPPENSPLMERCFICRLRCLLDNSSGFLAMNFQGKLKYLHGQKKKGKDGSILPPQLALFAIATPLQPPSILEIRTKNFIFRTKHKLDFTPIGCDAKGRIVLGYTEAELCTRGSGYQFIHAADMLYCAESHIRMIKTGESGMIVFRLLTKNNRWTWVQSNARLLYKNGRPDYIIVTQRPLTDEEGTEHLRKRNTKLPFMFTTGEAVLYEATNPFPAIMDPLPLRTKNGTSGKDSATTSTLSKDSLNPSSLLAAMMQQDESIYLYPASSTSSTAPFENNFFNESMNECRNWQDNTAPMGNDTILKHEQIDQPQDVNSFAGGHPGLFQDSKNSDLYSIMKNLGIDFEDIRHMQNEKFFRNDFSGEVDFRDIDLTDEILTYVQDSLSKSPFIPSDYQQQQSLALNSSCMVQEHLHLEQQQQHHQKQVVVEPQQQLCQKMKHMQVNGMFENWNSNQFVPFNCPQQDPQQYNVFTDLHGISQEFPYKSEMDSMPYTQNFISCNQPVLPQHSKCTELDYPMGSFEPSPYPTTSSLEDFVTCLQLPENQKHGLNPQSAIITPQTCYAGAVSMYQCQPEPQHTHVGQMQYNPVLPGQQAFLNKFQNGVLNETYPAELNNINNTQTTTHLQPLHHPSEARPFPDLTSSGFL", "test": "Agonist activity at AHR in human HepG2 cells incubated for 4.5 hrs by Luciferase reporter assay", "type": "cell-based"}, "[2]": {"target": "T1, Aryl hydrocarbon receptor", "test": "Agonist activity at AHR in human AZ-AHR stable HepG2 cells by Luciferase reporter assay"}, "[3]": {"target": "T1, Aryl hydrocarbon receptor", "test": "Agonist activity at AHR in human MDA-MB-468 cells incubated for 24 hrs by Western blot analysis", "type": "cell-based"}},
  "data": [
    {"smiles": "O=C(c1cccc(C(F)(F)F)n1)c1c[nH]c2ccccc12", "values": [
      {"measurement": "EC50", "setting": "[1]", "result": 0.002, "unit": "µM"}
    ]},
    {"smiles": "OC(c1ccncc1)(c1cc2ccccc2[nH]1)c1cc2ccccc2[nH]1", "values": [
      {"measurement": "EC50", "setting": "[2]", "result": 1.6, "unit": "µM"}
    ]},
    {"smiles": "N#Cc1cccc(C(=O)c2c[nH]c3ccccc23)n1", "values": [
      {"measurement": "EC50", "setting": "[1]", "result": 0.002, "unit": "µM"}
    ]},
    {"smiles": "Brc1c(Br)c(Br)c2c([nH]c3c(Br)c(Br)c(Br)c(Br)c32)c1Br", "values": [
      {"measurement": "EC50", "setting": "[3]", "result": "< 1", "unit": "µM"}
    ]},
    {"smiles": "Clc1c(Cl)c(Cl)c2c([nH]c3c(Cl)c(Cl)c(Cl)c(Cl)c32)c1Cl", "values": [
      {"measurement": "EC50", "setting": "[3]", "result": "< 1", "unit": "µM"}
    ]},
    {"smiles": "CCOn1c(C(O)(c2ccncc2)c2cc3ccccc3[nH]2)cc2ccccc21", "note": "(stereo unspecified)", "values": [
      {"measurement": "EC50", "setting": "[2]", "result": 1.6, "unit": "µM"}
    ]}
  ]
}
